In patent US20080255134A1 (Artesian Therapeutics, Inc., priority 2004, published 2008):
Entries after “also recorded” stand apart in the source; their conditions may differ. Where two headings read alike, the source gives them in different places.

Columns and labels:
[1] = system: White New Zealand male rabbits; test: In vivo β-adrenergic blockade, isoproterenol challenge (Protocol 1); set-up: species or system rabbit; dose or concentration left out as unconfirmed; conditions: during isoproterenol challenge, intravenous, FIG. 10
[2] = system: naive anesthetized canines; test: Contractility in naive anesthetized canines (protocol 2); assay type: in vivo, canine; conditions: administered alone (protocol 2), FIG. 17
[3] = system: White New Zealand male rabbits; test: In vivo hemodynamic effects of compounds administered alone (Protocol 2); set-up: species or system rabbit
Description: (§1) Studies were performed on White New Zealand male rabbits (2-3 kg weight). Animals were initially anesthetized with ketamine (50 mg/kg; IM) and xylazine (6 mg/kg, IM). Subsequently, animals were intubated (via tracheotomy; 3 mm tube) and ventilated with 2% isoflurane (mixed in 95% O2+5% CO2). Each rabbit was instrumented for LV pressure (3F Millar catheter) through right carotid artery, arterial pressure (3F catheter, Cook Instruments) through left femoral artery, which was connected to a fluid-filled pressure transducer (BD Instruments), and ECG. Both pressure transducers were zeroed against atmospheric pressure, and calibrated before each study using an analog manometer. Upon completion of instrumentation, isoflurane was reduced to 1.25%, and the animal was covered for maintenance of body core temperature. Arterial and LV blood pressures (LVP) and the ECG signals were simultaneously digitally recorded on a PC. The recording system (Gould Instruments) and the corresponding software (Ponema, Gould Instruments) facilitated detailed calculation of various parameters directly from all signals and record on a separate file with a 1 sec resolution. Upon completion of the study protocol, rabbits were euthenized by isoflurane overdose (5% for at least 1 minute) and cardiac arrest through IV infusion of 5 ml 3 molar potassium chloride.
(§2) Once the physiological variables were stable, effects of each drug on hemodynamics and ECG were determined based on two different protocols: 1) infusion of a compound of the present invention to determine the effects of the compound itself mainly on contractility, and other hemodynamic indices; and 2) infusion of a compound of the present invention while the system was challenged with 0.5 ug/kg isoproterenol to determine the beta-adrenergic antagonism properties of each tested compound.
(§3) White New Zealand male rabbits (2-3 kg) were anesthetized and ventilated (95% O2+5% CO2) with 1.25% isoflurane. Each animal was instrumented for LV pressure (Millar, through left carotid artery), arterial pressure (left femoral artery), infusion (jugular vein), and electrocardiogram. The animals were administered intravenously based on one of these protocols:
Protocol 2: PDE3 inhibition (effects of compounds when administered alone).

[4] = system: White New Zealand male rabbits; test: In vivo β-adrenergic blockade, isoproterenol challenge (Protocol 1); set-up: species or system rabbit
Description: as §1, §2, §3
Protocol 1: β-adrenergic blockade (isoproterenol challenge).

PDE3 = biological target: T1, PDE3 (Homo sapiens, UniProt Q14432); test: In vitro assay for cAMP PDE-3 inhibitory activity; assay type: biochemical
T1 construct: from tissue; host or cells: human platelets
T1 sequence (Q14432 whole entry): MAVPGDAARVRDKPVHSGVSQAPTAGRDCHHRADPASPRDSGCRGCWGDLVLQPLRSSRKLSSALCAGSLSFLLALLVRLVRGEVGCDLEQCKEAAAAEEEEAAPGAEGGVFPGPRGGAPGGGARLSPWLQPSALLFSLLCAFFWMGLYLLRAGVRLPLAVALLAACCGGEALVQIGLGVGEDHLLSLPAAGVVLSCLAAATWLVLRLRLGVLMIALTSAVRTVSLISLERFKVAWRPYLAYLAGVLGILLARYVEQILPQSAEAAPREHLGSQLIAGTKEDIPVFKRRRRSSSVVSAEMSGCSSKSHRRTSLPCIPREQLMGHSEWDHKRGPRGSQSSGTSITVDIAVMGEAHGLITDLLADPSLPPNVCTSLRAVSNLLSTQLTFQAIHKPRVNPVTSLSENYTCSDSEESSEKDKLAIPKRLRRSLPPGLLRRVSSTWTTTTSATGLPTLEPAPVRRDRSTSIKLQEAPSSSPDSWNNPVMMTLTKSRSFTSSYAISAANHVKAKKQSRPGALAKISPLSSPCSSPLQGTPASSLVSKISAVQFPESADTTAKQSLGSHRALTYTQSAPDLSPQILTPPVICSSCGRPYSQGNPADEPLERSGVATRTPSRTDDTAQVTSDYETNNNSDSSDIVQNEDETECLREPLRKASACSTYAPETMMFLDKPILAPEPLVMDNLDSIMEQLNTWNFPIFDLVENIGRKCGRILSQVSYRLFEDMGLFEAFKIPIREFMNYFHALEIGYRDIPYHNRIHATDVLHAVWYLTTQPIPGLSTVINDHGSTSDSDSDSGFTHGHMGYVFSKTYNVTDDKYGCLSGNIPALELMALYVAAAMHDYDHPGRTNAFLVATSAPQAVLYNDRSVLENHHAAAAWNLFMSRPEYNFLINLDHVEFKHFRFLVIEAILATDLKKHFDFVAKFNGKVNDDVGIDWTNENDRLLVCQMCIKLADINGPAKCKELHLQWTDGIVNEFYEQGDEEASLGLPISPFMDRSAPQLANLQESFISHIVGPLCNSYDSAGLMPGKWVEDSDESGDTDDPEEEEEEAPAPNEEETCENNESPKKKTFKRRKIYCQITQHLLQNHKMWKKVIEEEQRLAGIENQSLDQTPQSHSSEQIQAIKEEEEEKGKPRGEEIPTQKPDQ

[5] = biological target: T2, human recombinant beta-1 receptors (Homo sapiens, UniProt P08588); test: β1-receptor radioligand binding, [125I] iodocyanopindolol, CHO-REX16 cells; conditions: at 100 nM
T2 construct: expressed in transfected cells; host or cells: CHO-REX16 cells
T2 sequence (P08588 whole entry): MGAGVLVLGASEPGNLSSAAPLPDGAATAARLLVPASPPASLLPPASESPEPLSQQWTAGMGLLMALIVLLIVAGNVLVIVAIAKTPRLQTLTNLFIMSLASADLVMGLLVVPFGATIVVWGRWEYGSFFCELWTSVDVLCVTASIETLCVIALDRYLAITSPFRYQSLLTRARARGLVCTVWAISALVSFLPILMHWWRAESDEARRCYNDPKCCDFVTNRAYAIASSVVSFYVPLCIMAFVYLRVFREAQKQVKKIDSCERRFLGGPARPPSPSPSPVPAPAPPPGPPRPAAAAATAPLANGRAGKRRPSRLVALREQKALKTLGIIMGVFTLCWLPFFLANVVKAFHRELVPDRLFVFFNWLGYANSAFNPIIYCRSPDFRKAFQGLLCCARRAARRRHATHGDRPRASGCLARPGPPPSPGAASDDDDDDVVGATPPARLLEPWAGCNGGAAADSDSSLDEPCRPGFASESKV
Description: […] receptor binding was measured in human recombinant beta-1 receptors expressed in CHO-REX16 cells, using [^125I] (-) iodocyanopindolol (2000 Ci/mmol) as the radioligand, as described in Kalaria et al., J. Neurochem. 53: 1772-81 (1998), and Minneman et al., Mol. Pharmacol. 16: 34-46 (1979).

[6] = system: human fetal cardiac fibroblasts; test: Cyclic-AMP production by fluorescence (intrinsic sympathomimetic activity); assay type: cell-based; conditions: IBMX (750 μM) present; compared to isoproterenol or forskolin; any concentration tested
Description: The effect of Compound 8c on cyclic-AMP production was determined in human fetal cardiac fibroblasts by fluorescence, presented in FIG. 18 as [F−Fo)/Fo], mean±SEM, N=4. IBMX (750 μM) was present in all assays.

β1-adrenergic receptor = biological target: T3, β1-adrenergic receptor (Rattus norvegicus, UniProt P18090); test: β1-adrenergic radioligand binding assay using rat cortical membranes
T3 construct: from tissue; host or cells: rat cortical membranes
T3 sequence (P18090 whole entry): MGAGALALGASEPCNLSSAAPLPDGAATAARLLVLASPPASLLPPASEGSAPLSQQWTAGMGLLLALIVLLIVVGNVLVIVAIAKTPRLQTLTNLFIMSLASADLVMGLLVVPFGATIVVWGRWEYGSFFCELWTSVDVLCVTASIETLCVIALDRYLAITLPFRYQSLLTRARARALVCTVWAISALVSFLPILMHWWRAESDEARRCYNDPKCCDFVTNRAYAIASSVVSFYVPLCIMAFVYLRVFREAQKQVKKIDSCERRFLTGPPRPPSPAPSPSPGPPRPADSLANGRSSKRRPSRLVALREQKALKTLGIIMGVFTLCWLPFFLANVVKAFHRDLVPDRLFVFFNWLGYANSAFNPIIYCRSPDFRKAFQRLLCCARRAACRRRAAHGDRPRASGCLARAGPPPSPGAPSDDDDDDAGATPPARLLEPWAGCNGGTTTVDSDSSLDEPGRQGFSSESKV
Description: Non-selective β-adrenergic and β1-adrenergic radioligand binding assays were performed using rat cortical membranes; β2-adrenergic receptor assays were performed using membranes isolated from CHO cells expressing human, recombinant b2-adrenergic receptor; non-selective α1-adrenergic receptor assays were performed using rat forebrain membranes; and PDE3 binding assays were performed on human platelets. Values in percent illustrate percent inhibition at 1000 nM concentration.

[7] = Compound 25 0.3 mg/kg, carvedilol 0.1 mg/kg, Protocol 1, FIG. 13

`O=C1CCC(c2ccc(OCCNCC(O)COc3cccc4[nH]c5ccccc5c34)c(Cl)c2)=NN1` (racemic) [Compound 25, 6-(4-{2-[3-(9H-Carbazol-4-yloxy)-2-hydroxy-propylamino]-ethoxy}-3-chloro-phenyl)-4,5-dihydro-2H-pyridazin-3-one] was tested, and the “β-adrenergic antagonism on left ventricular contractility” value [1] was “potent dose-dependent β-adrenergic antagonism”, the “contractility in naive anesthetized canines” value [2] was “increased contractility in a dose-dependent manner” and the “heart rate when administered alone” value ([3]; Protocol 2, with and without atropine and bilateral vagotomy (FIG. 16)) was “minimal effect on heart rate; also recorded: did not increase heart rate”. For the same compound, the “left ventricular contractility when administered alone” value ([3]; protocol 2, relative to control, FIGS. 2, 12) was “increased or maintained contractility in a dose-dependent manner”, the “contractility (LV+dP/dtmax) at ED50” value [4, 7] was “increased contractility” and the “mean arterial pressure (MAP) at ED50” value [4, 7] was “more potent decrease in mean arterial pressure (MAP) than carvedilol”. For the same compound, the ED50 ([4]; Oryctolagus cuniculus, isoproterenol challenge (0.5 μg/kg), intravenous, read-out: ED50, dose that diminished isoproterenol-dependent increase in HR by 50%) was 0.3 mg/kg, the “relaxation properties (Tau) at ED50” value ([4]; compared to control, Protocol 1, FIG. 13) was “did not change the relaxation properties (Tau)” and the “β-adrenergic antagonism on heart rate (HR)” value ([4]; during isoproterenol challenge (0.5 μg/kg), FIG. 11) was “dose-dependent β-adrenergic antagonism”. For the same compound, the IC50 (PDE3; human platelet cyclic AMP phosphodiesterase, bound stated, read-out: PDE3 inhibition IC50) was under 1000 nM, the IC50 (PDE3; human platelet cyclic AMP phosphodiesterase, bound stated, read-out: PDE IC50 inhibition values) was under 100 nM and the IC50 (PDE3; human platelets, read-out: PDE3 IC50) was 19 nM. For the same compound, the inhibition at 0.1 µM [5] was over 25%, the “intrinsic sympathomimetic activity (cyclic-AMP production)” value [6] was “neither Compound 8c nor Compound 25 possessed intrinsic sympathomimetic activity” and the IC50 (β1-adrenergic receptor) was 2 nM.
